Assay results reported in the supplement of paper PMC4862054.

Columns and labels:
Conditions in all cases: incubation time: 72 h
BT-474 [1] = assay: normalised response (% of control), CellTox Green; higher = less cell death (100 = DMSO, 0 = benzethonium chloride kill control)
In short: (§1)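 Normalised signals at single concentrations make up the values. They come from breast cancer cell lines seeded (20 µl suspension) into 384-well plates with compound at 5 concentrations in 10-fold steps over a compound-specific 10,000-fold range, incubated 72 h, and read for CellTox Green fluorescence then CellTiter-Glo luminescence. Each plate was normalised to 0.1 % DMSO (100) and a positive kill control (0).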

BT-549 [2] = assay: as above
In short: as §1

CAL-120 [3] = assay: as above
In short: as §1

CAL-148 [4] = assay: as above
In short: as §1

CAL-51 [5] = assay: as above
In short: as §1

CAL-85-1 [6] = assay: as above
In short: as §1

DU-4475 [7] = assay: as above
In short: as §1

HCC1143 [8] = assay: as above
In short: as §1

HCC1599 [9] = assay: as above
In short: as §1

HCC1937 [10] = assay: as above
In short: as §1

HDQ-P1 [11] = assay: as above
In short: as §1

Hs578T [12] = assay: as above
In short: as §1

MCF-10A [13] = assay: as above
In short: as §1

MDA-MB-231 [14] = assay: as above
In short: as §1

MDA-MB-436 [15] = assay: as above
In short: as §1

MDA-MB-453 [16] = assay: as above
In short: as §1

MDA-MB-468 [17] = assay: as above
In short: as §1

MFM-223 [18] = assay: as above
In short: as §1

BT-474 [19] = assay: normalised response (% of control), CellTiter-Glo; higher = more viable cells (100 = DMSO, 0 = benzethonium chloride kill control)
Description: (§2)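 DSRT, 72 h incubation, CellTox Green / CellTiter-Glo readout. Signal is normalised to DMSO and benzethonium chloride controls. Value is the normalised response at dose 3.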

BT-549 [20] = assay: as above
Description: as §2

CAL-120 [21] = assay: as above
Description: as §2

CAL-148 [22] = assay: as above
Description: as §2

CAL-51 [23] = assay: as above
Description: as §2

CAL-85-1 [24] = assay: as above
Description: as §2

DU-4475 [25] = assay: as above
Description: as §2

HCC1143 [26] = assay: as above
Description: as §2

HCC1599 [27] = assay: as above
Description: as §2

HCC1937 [28] = assay: as above
Description: as §2

HDQ-P1 [29] = assay: as above
Description: as §2

Hs578T [30] = assay: as above
Description: as §2

MCF-10A [31] = assay: as above
Description: as §2

MDA-MB-231 [32] = assay: as above
Description: as §2

MDA-MB-436 [33] = assay: as above
Description: as §2

MDA-MB-453 [34] = assay: as above
Description: as §2

MDA-MB-468 [35] = assay: as above
Description: as §2

MFM-223 [36] = assay: as above
Description: as §2

SK-BR-3 = assay: as above
Description: as §2

Row | SMILES | normalised response (BT-474 [1]) | normalised response (BT-549 [2]) | normalised response (CAL-120 [3]) | normalised response (CAL-148 [4]) | normalised response (CAL-51 [5]) | normalised response (CAL-85-1 [6]) | normalised response (DU-4475 [7]) | normalised response (HCC1143 [8]) | normalised response (HCC1599 [9]) | normalised response (HCC1937 [10]) | normalised response (HDQ-P1 [11]) | normalised response (Hs578T [12]) | normalised response (MCF-10A [13]) | normalised response (MDA-MB-231 [14]) | normalised response (MDA-MB-436 [15]) | normalised response (MDA-MB-453 [16]) | normalised response (MDA-MB-468 [17]) | normalised response (MFM-223 [18]) | normalised response (BT-474 [19]) | normalised response (BT-549 [20]) | normalised response (CAL-120 [21]) | normalised response (CAL-148 [22]) | normalised response (CAL-51 [23]) | normalised response (CAL-85-1 [24]) | normalised response (DU-4475 [25]) | normalised response (HCC1143 [26]) | normalised response (HCC1599 [27]) | normalised response (HCC1937 [28]) | normalised response (HDQ-P1 [29]) | normalised response (Hs578T [30]) | normalised response (MCF-10A [31]) | normalised response (MDA-MB-231 [32]) | normalised response (MDA-MB-436 [33]) | normalised response (MDA-MB-453 [34]) | normalised response (MDA-MB-468 [35]) | normalised response (MFM-223 [36]) | normalised response (SK-BR-3)
1 | CCn1c(-c2nonc2N)nc2cnc(Oc3cccc(NC(=O)c4ccc(OCCN5CCOCC5)cc4)c3)cc21 (100 nM) | 103% | 90.2% | 102% | 98.4% | 63.3% | 98.3% | 100% | 101% | 96.8% | 108% | 105% | 66.9% | 97.3% | 79.4% | 82% | 101% | 119% | 95.4% | 81.8% | 88.6% | 81.9% | 99.6% | 80% | 95.5% | 95.4% | 103% | 95.9% | 102% | 99.6% | 80.5% | 75.6% | 86.5% | 103% | 97.1% | 91.4% | 98% | 97.9%
2 | COc1cc(O)c2c(c1)/C=C/C[C@H](O)[C@H](O)C(=O)/C=C\C[C@H](C)OC2=O [(5Z)-7-Oxozeaenol] (100 nM) | 104% | 91.1% | 104% | – | 109% | – | 96.9% | 89.1% | 108% | 105% | 85.9% | 79.4% | – | 109% | 104% | 102% | 107% | 105% | 95.4% | 76.2% | 101% | 101% | 103% | 88.5% | 76.1% | 99% | 91.2% | 92.4% | 84.1% | 98.9% | 84.8% | 104% | 104% | 108% | 92.9% | 103% | 108%
3 | S=P(N1CC1)(N1CC1)N1CC1 [Thio-TEPA] (500 nM) | 94.3% | 108% | 97% | 102% | 113% | 107% | 101% | 101% | 97.2% | – | 92.6% | 88.8% | – | 105% | 85.2% | 102% | 69% | 100% | 95% | 102% | 96.1% | 95.6% | 108% | 103% | 104% | 97.5% | 89% | 95.4% | 102% | 101% | 106% | 98.8% | 94.8% | 116% | 101% | 98.7% | 110%
4 | Cc1ccc(NC(=O)c2ccc(CN3CCN(C)CC3)cc2)cc1Nc1nc(-c2cccnc2)cs1 [Masitinib] (100 nM) | 95.3% | 91% | 98.9% | 95.1% | 104% | 99.3% | 99.3% | 105% | 101% | – | 87.1% | 106% | 68.2% | 91.5% | 73.4% | 103% | 116% | 91.6% | 101% | 107% | 97.7% | 106% | 83.5% | 101% | 105% | 102% | 93.8% | 103% | 109% | 102% | 91.6% | 111% | 107% | 106% | 99.8% | 106% | 99%
5 | COC(=O)c1ccc2c(c1)NC(=O)/C2=C(\Nc1ccc(N(C)C(=O)CN2CCN(C)CC2)cc1)c1ccccc1 [Nintedanib] (100 nM) | 102% | 101% | 100% | 102% | 109% | 98.1% | 103% | 106% | 95.1% | 108% | 83.3% | – | 102% | 92.7% | 93% | 101% | 82.3% | 98.9% | 96.8% | 108% | 98.7% | 106% | 103% | 98.7% | 100% | 101% | 114% | 94.9% | 95% | 103% | 93.4% | 105% | 102% | 109% | 92.2% | 95.8% | 98.3%
6 | CN(C)CCOc1ccc(/C(=C(/CCCl)c2ccccc2)c2ccccc2)cc1 [Toremifene] (100 nM) | 101% | 92.8% | 102% | 84.1% | 110% | 98.3% | 102% | 70.6% | 99.1% | – | 74.3% | 99.7% | 71.6% | 55.6% | – | 106% | 127% | 92.6% | 102% | 101% | 105% | 109% | 100% | 94.6% | 104% | 103% | 102% | 99.7% | 98.2% | 104% | 103% | 105% | 100% | 107% | 99.1% | 103% | 102%
7 | COc1cc(OC2CCN(C)CC2)ccc1Nc1ncc2c(n1)n(C1CCCC1)c(=O)n2C [AZ 3146] (100 nM) | 98.3% | 111% | 96.9% | 89.9% | 111% | 107% | 99.8% | 96.7% | 96.6% | 96.3% | 96.2% | 99.1% | – | 92.5% | 77.7% | 104% | – | 100% | 104% | 108% | 99.9% | 99.2% | 115% | 102% | 99.9% | 98.8% | 98.3% | 96.2% | 98.7% | 94.1% | 96.7% | 99.1% | 104% | 111% | 101% | 99.2% | 98.1%
8 | CNC(=O)c1cccc(-c2ccc3c(N4CCOC[C@@H]4C)nc(N4CCOC[C@@H]4C)nc3n2)c1 [AZD2014] (100 nM) | 102% | 101% | 101% | 83.9% | 49.6% | 104% | 103% | 105% | 93% | – | 106% | 107% | 51.3% | 121% | 118% | 98.7% | – | 103% | 87.1% | 73.9% | 79.4% | 85.6% | 69.4% | 87.6% | 97.1% | 92.3% | 119% | 80.8% | 70.5% | 93.6% | 97.3% | 86.9% | 82% | 80.8% | 94.7% | 75.1% | 64.7%
9 | O=C(/C=C/c1cccc(S(=O)(=O)Nc2ccccc2)c1)NO [Belinostat] (100 nM) | 96.7% | 100% | 99.2% | 101% | 83.8% | 94.8% | 99.4% | 95.4% | 104% | 89.8% | 104% | 103% | – | 76.3% | 93.2% | 100% | 131% | 84.1% | 95% | 99.3% | 87.5% | 79.8% | 63.4% | 85.6% | 86.4% | 89.1% | 92.3% | 83.9% | 83.7% | 95% | 81.3% | 85.5% | 83.6% | 62.3% | 83.6% | 85.6% | 82.7%
